# Assay results as given in patent US20130217678A1, “PHARMACEUTICAL AGENT COMPRISING QUINOLONE COMPOUND” (OTSUKA PHARMACEUTICAL CO., LTD., priority 2008, published 2013).
# Experiments:
# [1] = test system: human neuroblastoma cell lines SH-SY5Y treated with 1-methyl-4-phenylpyridinium (MPP+); assay: Improvement of mitochondrial function (Alamar Blue mitochondrial oxidation reduction activity) in MPP+-treated SH-SY5Y cells; format: cell-based; conditions: 1.5 mM MPP+, relative to cells in DMSO alone = 100%, read-out: Fluorescence Intensity (%); for activity at 0.01 µg/mL: compound 0.01 μg/ml; for activity at 0.03 µg/mL: compound 0.03 μg/ml; for activity at 0.1 µg/mL: compound 0.1 μg/ml; for activity at 0.3 µg/mL: compound 0.3 μg/ml; for activity at 1 µg/mL: compound 1 μg/ml
# Method: In human neuroblastoma cell lines SH-SY5Y in which mitochondrial function was damaged by MPP^+ treatment (Bollimuntha S. et al., J Biol Chem, 280, 2132-2140 (2005) and Shang T. et al., J Biol Chem, 280, 34644-34653 (2005)), the improvement of mitochondrial function was evaluated on the basis of the measurement value for mitochondrial oxidation reduction activity using Alamar Blue fluorescent dye after the compound addition (Nakai M. et al, Exp Neurol, 179, 103-110 (2003)).
# The human neuroblastoma cell lines SH-SY5Y were cultured in Dulbecco's Modified Eagle's Medium containing 10% fetal bovine serum (DMEM containing 50 units/ml penicillin and 50 μg/ml streptomycin as antibiotics) at 37° C. in the presence of 5% carbon dioxide. Cells were scattered on a poly-D-lysine-coated 96-well black plate at a concentration of 3−6×10^4 cells/cm^2 (medium amount: 100 μl/well) and cultured in the medium for two days. Further, the medium was changed to DMEM containing a 1% N2 supplement (N2-DMEM) or to a medium (100 μl/well) in which 1.5 mM MPP^+ was dissolved. The cells were cultured therein for 39 to 48 hours, and then subjected to a mitochondrial oxidation reduction activity measurement system. A sample compound that had been previously dissolved in dimethyl sulfoxide (DMSO) was diluted with N2-DMEM and added in a volume of 10 μl/well 24 hours before the activity measurement (final compound concentration: 0.01 to 1 μg/ml).
# After removal of the medium by suction, a balanced salt solution containing 10% Alamar Blue (154 mM sodium chloride, 5.6 mM potassium chloride, 2.3 mM calcium chloride, 1.0 mM magnesium chloride, 3.6 mM sodium hydrogen carbonate, 5 mM glucose, 5 mM HEPES, pH 7.2) was added in a volume of 100 μl/well, and reacted in an incubator at 37° C. for 1 hour. The fluorescent intensity was detected using a fluorescence detector (a product of Hamamatsu Photonics K.K., excitation wavelength: 530 nm, measurement wavelength: 580 nm) to thereby measure the mitochondrial oxidation reduction activity.
# The fluorescent intensity of the well of the cells cultured in a medium containing MPP^+ and each of the sample compounds was relatively evaluated based on the 100% fluorescent intensity of the well of the cells cultured in a medium containing DMSO alone (final concentration: 0.1%).
SMILES,melting point,activity at 0.01 µg/mL [1] [%],activity at 0.03 µg/mL [1] [%],activity at 0.1 µg/mL [1] [%],activity at 0.3 µg/mL [1] [%],activity at 1 µg/mL [1] [%]
"COc1ccc(-c2c[nH]c3c(OCC4CC4)cc(C)c(C)c3c2=O)cc1 [Example 83, 8-Cyclopropylmethoxy-3-(4-methoxyphenyl)-5,6-dimethyl-1H-quinolin-4-one]",99 to 101 °C,65,70,67,62,29
"COc1ccc(-c2c[nH]c3c(Oc4ccccc4)cccc3c2=O)cc1 [Example 18, 3-(4-Methoxyphenyl)-8-phenoxy-1H-quinolin-4-one]",250 to 251 °C,29,45,44,47,30
"CCCOc1cc(F)cc2c(=O)c(-c3ccc(OC)cc3)c[nH]c12 [Example 34, 6-Fluoro-3-(4-methoxyphenyl)-8-propoxy-1H-quinolin-4-one]",153 to 154 °C,47,53,53,63,53
"CCCOc1ccc(C)c2c(=O)c(-c3ccc4c(c3)OCO4)c[nH]c12 [Example 60, 3-Benzo[1,3]dioxol-5-yl-5-methyl-8-propoxy-1H-quinolin-4-one]",110 to 115 °C,52,65,75,70,44
"CCCOc1ccc(C)c2c(=O)c(-c3ccc(OC)cc3OC)c[nH]c12 [Example 20, 3-(2,4-Dimethoxyphenyl)-5-methyl-8-propoxy-1H-quinolin-4-one]",193 to 194 °C,65,67,74,78,77
"CCCCc1ccc(C(=O)N(C)C)c2c(=O)c(-c3ccc(OC)cc3)c[nH]c12 [Example 82, 8-Butyl-3-(4-methoxyphenyl)-4-oxo-1,4-dihydroquinolin-5-carboxylic acid dimethylamide]",198 to 200 °C,63,62,62,69,81
"COc1ccc(-c2c[nH]c3c(Br)ccc(C)c3c2=O)cc1 [Example 86, 8-Bromo-3-(4-methoxyphenyl)-5-methyl-1H-quinolin-4-one]",185 to 186 °C,60,65,65,65,52
"COc1ccc(OCC2CC2)c2[nH]c(C)c(-c3ccco3)c(=O)c12 [Example 109, 8-Cyclopropylmethoxy-3-furan-2-yl-5-methoxy-2-methyl-1H-quinolin-4-one]",189 to 190 °C,49,62,65,82,73
"CCCOc1c(C)cc(C)c2c(=O)c(-c3ccc(OC)cc3)c[nH]c12 [Example 23, 3-(4-Methoxyphenyl)-5,7-dimethyl-8-propoxy-1H-quinolin-4-one]",174 to 175 °C,51,63,67,68,59
"COc1ccc(-c2c[nH]c3c(OC(C)C)ccc(OC)c3c2=O)cc1 [Example 46, 8-Isopropoxy-5-methoxy-3-(4-methoxyphenyl)-1H-quinolin-4-one]",213 to 214 °C,,,,,
"COc1ccc(-c2c[nH]c3c(N4CCN(C)CC4)ccc(C)c3c2=O)cc1 [Example 77, 3-(4-Methoxyphenyl)-5-methyl-8-(4-methylpiperazin-1-yl)-1H-quinolin-4-one]",214 to 215 °C,,,,,
"COc1ccc(-c2c[nH]c3c(N(C)C(C)C)ccc(C)c3c2=O)cc1 [Example 103, 8-(N-Isopropyl-N-methylamino)-3-(4-methoxyphenyl)-5-methyl-1H-quinolin-4-one]",186 to 187 °C,,,,,
"COc1ccc(OC2CCCC2)c2[nH]cc(-c3ccc(Cl)cc3Cl)c(=O)c12 [Example 104, 8-Cyclopentyloxy-3-(2,4-dichlorophenyl)-5-methoxy-1H-quinolin-4-one]",266 to 268 °C,,,,,
"COc1ccc(-c2c[nH]c3c(-c4cc5ccccc5s4)ccc(C)c3c2=O)cc1 [Example 98, 8-Benzo[b]thiophen-2-yl-3-(4-methoxyphenyl)-5-methyl-1H-quinolin-4-one]",229 to 231 °C,,,,,
"COc1ccc(-c2c[nH]c3c(-c4cccs4)ccc(C)c3c2=O)cc1 [Example 100, 3-(4-Methoxyphenyl)-5-methyl-8-thiophen-2-yl-1H-quinolin-4-one]",197 to 199 °C,,,,,
"COc1ccc(-c2c[nH]c3c(N4CCOCC4)ccc(C)c3c2=O)cc1 [Example 73, 3-(4-Methoxyphenyl)-5-methyl-8-morpholin-4-yl-1H-quinolin-4-one]",260 to 263 °C,,,,,

# The next lines start with results.
melting point,SMILES,activity at 0.01 µg/mL [1] [%],activity at 0.03 µg/mL [1] [%],activity at 0.1 µg/mL [1] [%],activity at 0.3 µg/mL [1] [%],activity at 1 µg/mL [1] [%]
103 to 106 °C,"CCCOc1ccc(C)c2c(=O)c(-c3ccc(Cl)cc3Cl)c[nH]c12 [Example 57, 3-(2,4-Dichlorophenyl)-5-methyl-8-propoxy-1H-quinolin-4-one]",,,,,
270 to 275 °C (dec.),"Cc1ccc(O)c2[nH]cc(-c3ccc(O)cc3)c(=O)c12 [Example 75, 8-Hydroxy-3-(4-hydroxyphenyl)-5-methyl-1H-quinolin-4-one]",,,,,
117 to 119 °C,"CCOc1ccc(OC)c2c(=O)c(-c3ccc(OC)cc3)c[nH]c12 [Example 45, 8-Ethoxy-5-methoxy-3-(4-methoxyphenyl)-1H-quinolin-4-one]",,,,,
200 to 203 °C,"CCCOc1cccc2c(=O)c(-c3ccccc3Br)c[nH]c12 [Example 54, 3-(2-Bromophenyl)-8-propoxy-1H-quinolin-4-one]",,,,,
265 to 267 °C,"CCCOc1ccc(C)c2c(=O)c(-c3ccc(O)cc3)c[nH]c12 [Example 74, 3-(4-Hydroxyphenyl)-5-methyl-8-propoxy-1H-quinolin-4-one]",,,,,
255 to 256 °C,CCCOc1cccc2c(=O)c(-c3cccc4ccccc34)c[nH]c12,,,,,
231 to 232 °C,"CCCOc1cccc2c(=O)c(-c3ccc(OC)cc3OC)c[nH]c12 [Example 16, 3-(2,4-Dimethoxyphenyl)-8-propoxy-1H-quinolin-4-one]",,,,,
193 °C,"CCCOc1cccc2c(=O)c(-c3c(Cl)cccc3Cl)c[nH]c12 [Example 28, 3-(2,6-Dichlorophenyl)-8-propoxy-1H-quinolin-4-one]",,,,,
100 to 101 °C,"CCCOc1ccc(C)c2c(=O)c(-c3ccc(OC)cc3)cn(CC3CC3)c12 [Example 92, 1-Cyclopropylmethyl-3-(4-methoxyphenyl)-5-methyl-8-propoxy-1H-quinolin-4-one]",,,,,
201 to 202 °C,"CCCOc1ccc(C)c2c(=O)c(-c3ccccc3C)c[nH]c12 [Example 50, 5-Methyl-8-propoxy-3-o-tolyl-1H-quinolin-4-one]",,,,,
145 to 147 °C,"CCCOc1ccc(Cl)c2[nH]cc(-c3ccc(OC)cc3)c(=O)c12 [Example 81, 8-Chloro-3-(4-methoxyphenyl)-5-propoxy-1H-quinolin-4-one]",,,,,
182 to 183 °C,"COc1ccc(-c2c[nH]c3c(OCC4CC4)ccc(C)c3c2=O)cc1 [Example 69, 8-Cyclopropylmethoxy-3-(4-methoxyphenyl)-5-methyl-1H-quinolin-4-one]",,,,,
186 to 187 °C,"CCCOc1ccc(-c2ccccc2)c2c(=O)c(-c3ccc(OC)cc3)c[nH]c12 [Example 22, 3-(4-Methoxyphenyl)-5-phenyl-8-propoxy-1H-quinolin-4-one]",,,,,
160 to 161 °C,"CCCOc1c(F)ccc2c(=O)c(-c3ccc(OC)cc3)c[nH]c12 [Example 48, 7-Fluoro-3-(4-methoxyphenyl)-8-propoxy-1H-quinolin-4-one]",,,,,
